One assay concerns IFN-γ transcript. As to the kind of experiment: RT-PCR of IFN-γ transcript in SLE T cells. In kind it is cell-based, human. On the procedure:
T cells were cultured in the absence or presence of increasing concentrations of TSA for 18 hr in 5% CO2 at 37° C. RNA was isolated, cDNAs were prepared, and RT-PCR was performed as previously detailed (D. Laxminarayana, et al., J. Clin. Invest. 92, 2207 (1993)). The primers used were: […]
The reaction mixtures were subjected to 30 cycles of denaturation (94° C., 1 min) and annealing for 1 min at 53° C. (CD154), […] (GAPDH) and 55° C. (IL-10 and IFN-γ). Extension was for 2 min at 72° C. with a final extension of 7 min at 72° C. using a DNA thermal cycler (Perkin-Elmer).
Low production of IFN-γ by SLE T cells may reflect down-regulation of gene expression (B. S. Handwerger, et al., in Lupus: Molecular and Cellular Pathogenesis, G. M. Kammer and G. C. Tsokos, Eds. (Humana Press, Totowa, N.J., 1999), chap. 21; E. Hagiwara, et al., Arthritis Rheum. 39, 379 (1996)). To establish whether TSA can up-regulate IFN-γ expression, SLE T cells were treated for 18 hr in the absence or presence of TSA. During that time, TSA induced a three-fold increase in IFN-γ transcript compared to untreated cells (FIG. 3A, lanes 1 and 7, and FIG. 3B). When T cells were activated with PMA+IO in the absence of TSA, peak IFN-γ transcript expression increased 13-fold at 1 hr over basal levels relative to GAPDH transcript, but waned thereafter. […]

The subject of another assay is IFN-γ protein. As to the kind of experiment: IFN-γ protein production by SLE T cells (ELISA). The class given is cell-based, human. The conditions noted are these: SLE T cells activated with PMA+IO 24 hr in presence of TSA; P=0.011. As to the method:
To determine whether TSA could down-regulate IL-10, a dose-response analysis was performed. […] However, when SLE T cells were cultured in the presence of TSA for 18 hr, no detectable IL-10 transcripts were identified (FIG. 2C, lanes 3, 6, 9). When IL-10 transcripts from all eight SLE subjects were quantified relative to GAPDH transcripts, TSA inhibited expression of IL-10 mRNA by 71% (FIG. 2D; P=0.029). […] IL-10 and IFN-γ protein production were quantified by ELISA (R & D Systems, Minneapolis, Minn.). […] Thus, like CD154, TSA was able to block expression of IL-10 transcript, abolishing IL-10 production by SLE T cells.
When T cells were activated with PMA+IO for 24 hr, IFN-γ production increased about 24-fold. However, activation of T cells in the presence of TSA further enhanced IFN-γ output by >12-fold (P=0.011) (FIG. 3C).
For orientation: In an ELISA, binding on a coated surface is turned into a signal by an enzyme label.

For another assay, the system named is TGF-β1 protein. As to the kind of experiment: TGF-β1 protein secretion by PBMCs. In kind it is cell-based, human. As to the method:
Gene expression of TGF-β1 was tested to determine if the gene expression is suppressed by deacetylation of histones in SLE. In this determination, SLE PBMCs or isolated T cells were treated with the histone deacetylase inhibitors (HDIs), TSA or SAHA, for 18hr. […] Subsequently, semi-quantitative PCR was performed to determine the amounts of […] transcripts in SLE and control T cells treated with vehicle or TSA (1000 ng/ml). […] There is no change in GAPDH transcript in normal and SLE T cells after treatment of HDIs. Increased TGF-β1 transcript was associated with a subsequent increase in TGF-β1 protein secretion by SLE PBMCs. When compared to vehicle treated PBMCs, total TGF-β1 protein in culture supernatants from SLE PBMCs increased by approximately 30%. In contrast, there was no increase in total TGF-β1 secretion in TSA treated cells in normal healthy controls. Similar results may be obtained by SAHA.

The test system of assay [1] is IL-12 p35 and p40 transcripts. As to the kind of experiment: IL-12 p35 and p40 transcripts in MRL/lpr splenocytes. The class given is cell-based, mouse. As to the method: In this study, the question of whether TSA down-regulates transcription of both IL-12 p35 and p40 subunit mRNA was investigated. […] Splenocytes were stimulated with LPS and IFN-γ for 6 or 18 hr. […] When splenocytes were preincubated with TSA or SAHA for 18 hr and then stimulated with LPS and IFN-γ IL-12 p35 and p40 transcripts were undetectable (FIGS. 9B–D).

The test system of a further assay is IL-10 protein. As to the kind of experiment: IL-10 protein secretion by MRL/lpr splenocytes. Conditions: MRL/lpr splenocytes stimulated by LPS, Con A, or LPS+IFN-γ, 72 hr. The class given is cell-based, mouse. The source says: To determine the effect of TSA and SAHA on IL-10 protein secretion, MRL/lpr splenocytes were stimulated with Con A, LPS, or LPS+IFN-γ for 72 hr in the absence or presence of TSA or SAHA. As shown in the FIG. 11D, splenocytes stimulated with Con A, LPS, or LPS+IFN-γ secreted a mean (±SEM) of 31.8±4.5, 32.3±1.9, and 34.8±4.9 pg/ml, respectively, of IL-10 protein.

For the next assay, the system named is iNOS mRNA. As to the kind of experiment: iNOS mRNA induction in MRL/lpr splenocytes. In kind it is cell-based, mouse. Conditions: splenocytes from 10 wk old mice, LPS and IFN-γ 24 hr. The source says: Excessive production of nitric oxide (NO) is crucial to the initiation and maintenance of glomerulonephritis in MRL/lpr mice. Pharmacologic inhibition of NO synthesis in MRL/lpr mice abrogates disease progression. In examining whether HDIs could suppress inducible nitric oxide synthetase (iNOS), splenocytes from 10 wk old mice were stimulated in the presence or absence of TSA or SAHA with LPS and IFN-γ for 24 hr. […] To determine whether HDIs could suppress nitric oxide secretion by mesangial cells, mesangial cells were stimulated with LPS ([…]) in the presence of vehicle or TSA for 24 hr. The supernatant from the cell culture was assayed for nitric oxide.

This is an account of results in patent US7271198B2, “Method of treating autoimmune diseases” (Wake Forest University, priority 2000, dated 2007).

A value given as a limit tells only on which side of the number the result lay.

For the molecule `CC(/C=C/C(=O)NO)=C\[C@@H](C)C(=O)c1ccc(N(C)C)cc1` [TSA, Trichostatin A], the “peak increase in IFN-γ mRNA over untreated cells relative to GAPDH” value in the assay with IFN-γ transcript (SLE T cells activated with PMA+IO in presence of TSA, at 6 hr, P=0.031) turned out to be 37 fold. In addition, the “increase in IFN-γ transcript compared to untreated cells” value with IFN-γ transcript (SLE T cells, TSA 18 hr, not activated) is on record as “three-fold”. Moreover, the “further enhancement of IFN-γ output” value in the assay on IFN-γ protein is above 12 fold. For the same molecule, the “rise in the synthesis of TGF-β1 protein” value in the assay on TGF-β1 protein (SLE PBMCs exposed to TSA and SAHA (summary statement)) is on record as 30%. Besides, the “increase of total TGF-β1 protein in culture supernatants” value with TGF-β1 protein (SLE PBMCs, compared to vehicle treated PBMCs) is “approximately 30%”. Further, the “total TGF-β1 secretion” value in the assay on TGF-β1 protein (TSA treated cells of normal healthy controls) is “no increase”. Besides, in assay [1] (splenocytes from 10-wk old MRL/lpr mice preincubated 18 hr, stimulated 6 or 18 hr), the “LPS and IFN-γ induced IL-12 p35 and p40 transcripts” value is recorded as “undetectable”. For the same molecule, the “TSA concentration that completely suppressed constitutive IL-12 p35 and p40 transcripts” value in assay [1] (splenocytes from 24-wk MRL/lpr mice) was “above 100 ng/ml”. Besides, the IL-10 protein secretion entry with IL-10 protein is listed as “no detectable IL-10 secretion”. Besides, the “iNOS mRNA induction” value in the assay with iNOS mRNA was “able to suppress iNOS mRNA induction”.
